Where “and” joins values, the source holds several entries; their conditions need not be identical. Equal entries are not always repeated. Toxic doses and inconclusive results are not listed.
Tested on: P388 leukemia ip, CD2F1 mice, survival T/C
Assay: NCI In Vivo Anticancer Drug Screen. Data for tumor model P388 Leukemia (intraperitoneal) in CD2F1 (CDF1) mice
Conditions: endpoint: median survival time, higher = longer survival
Procedure, shortened: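 Mice carrying the transplanted tumor received test compound or vehicle. Survival was recorded in each group, and the value is the treated-group measurement divided by that of the vehicle-treated control group.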

[1] = dose: 100.0 mg/kg/injection, schedule: Q01DX001 (ip), vehicle: saline with Tween-80
[2] = dose: 200.0 mg/kg/injection, schedule: Q01DX001 (ip), vehicle: saline with Tween-80
[3] = dose: 400.0 mg/kg/injection, schedule: Q01DX001 (ip), vehicle: saline with Tween-80
[4] = dose: 50.0 mg/kg/injection, schedule: Q01DX009 (ip), vehicle: saline
[5] = dose: 50.0 mg/kg/injection, schedule: Q01DX005 (ip), vehicle: saline with Tween-80
[6] = dose: 100.0 mg/kg/injection, schedule: Q01DX005 (ip), vehicle: saline with Tween-80
[7] = dose: 200.0 mg/kg/injection, schedule: Q01DX005 (ip), vehicle: saline with Tween-80
[8] = dose: 50.0 mg/kg/injection, schedule: Q01DX009 (ip), vehicle: saline with Tween-80
[9] = dose: 100.0 mg/kg/injection, schedule: Q01DX009 (ip), vehicle: saline with Tween-80
[10] = dose: 200.0 mg/kg/injection, schedule: Q01DX009 (ip), vehicle: saline with Tween-80
[11] = dose: 60.0 mg/kg/injection, schedule: Q01DX005 (ip), vehicle: saline with Tween-80
[12] = dose: 120.0 mg/kg/injection, schedule: Q01DX005 (ip), vehicle: saline with Tween-80
[13] = dose: 240.0 mg/kg/injection, schedule: Q01DX005 (ip), vehicle: saline with Tween-80
[14] = dose: 50.0 mg/kg/injection, schedule: Q01DX009 (ip), vehicle: Klucel (hydroxypropylcellulose) (HPC)
[15] = dose: 100.0 mg/kg/injection, schedule: Q01DX009 (ip), vehicle: Klucel (hydroxypropylcellulose) (HPC)
[16] = dose: 50.0 mg/kg/injection, schedule: Q01DX005 (ip), vehicle: Klucel (hydroxypropylcellulose) (HPC)
[17] = dose: 100.0 mg/kg/injection, schedule: Q01DX005 (ip), vehicle: Klucel (hydroxypropylcellulose) (HPC)
[18] = dose: 12.5 mg/kg/injection, schedule: Q01DX009 (ip), vehicle: saline with Tween-80
[19] = dose: 50.0 mg/kg/injection, schedule: Q01DX005 (ip), vehicle: saline

CCCCCc1cc(O)c2c3c(c(=O)oc2c1)CP(=O)(c1ccccc1)CC3 (stereo unspecified)
T/C [1]: 102 % of control
T/C [2]: 98 % of control
T/C [3]: 90 % of control

NCc1cc(=O)[nH]o1
T/C [4]: 89 % of control
T/C (dose: 100.0 mg/kg/injection, schedule: Q01DX009 (ip), vehicle: saline): 92 % of control

CCSC(C/C=C/c1ccccc1)S(=O)CC (stereo unspecified)
T/C (dose: 100.0 mg/kg/injection, schedule: Q04DX003 (ip), vehicle: saline): 99 % of control
T/C (dose: 200.0 mg/kg/injection, schedule: Q04DX003 (ip), vehicle: saline): 107 % of control
T/C (dose: 400.0 mg/kg/injection, schedule: Q04DX003 (ip), vehicle: saline): 105 % of control

Nc1nc(Br)c2ncn(C3OC(CO)C(O)C3O)c2n1 (stereo unspecified)
T/C [5]: 101 % of control
T/C [6]: 101 % of control
T/C [7]: 94 % of control

C(=Nc1cccc2ccccc12)Nc1cccc2ccccc12.[Cu+2]
T/C [8]: 96 % of control
T/C [9]: 98 % of control
T/C [10]: 95 % of control

C=C1C(=O)OC2/C=C(\C)C(O)C/C=C(/C)C(OC(=O)/C(C)=C\C)C(O)C12 (stereo unspecified)
T/C (dose: 6125.0 micrograms/kg/injection, schedule: Q01DX005 (ip), vehicle: Klucel (hydroxypropylcellulose) (HPC)): 110 % of control
T/C (dose: 12250.0 micrograms/kg/injection, schedule: Q01DX005 (ip), vehicle: Klucel (hydroxypropylcellulose) (HPC)): 115 % of control
T/C (dose: 24500.0 micrograms/kg/injection, schedule: Q01DX005 (ip), vehicle: Klucel (hydroxypropylcellulose) (HPC)): 109 % of control
T/C (dose: 49000.0 micrograms/kg/injection, schedule: Q01DX005 (ip), vehicle: Klucel (hydroxypropylcellulose) (HPC)): 114 % of control

CCOC(=O)CC(=O)N(c1ccc(OC)cc1)C(C(=O)OC)c1ccccc1 (stereo unspecified)
T/C [11]: 101 % of control
T/C [12]: 104 % of control
T/C [13]: 104 % of control

CC1(c2cc(Cl)c(Cl)cc2Cl)NC(=O)NC1=O (stereo unspecified)
T/C [1]: 103 % of control
T/C [2]: 112 % of control

COC(=O)CC1(C(=O)OC)C2=C(CCC2)N2CCCC21 (stereo unspecified)
T/C (dose: 12.5 mg/kg/injection, schedule: Q01DX009 (ip), vehicle: Klucel (hydroxypropylcellulose) (HPC)): 101 % of control
T/C (dose: 25.0 mg/kg/injection, schedule: Q01DX009 (ip), vehicle: Klucel (hydroxypropylcellulose) (HPC)): 103 % of control
T/C [14]: 97 % of control
T/C [15]: 93 % of control

[Cl][Hg][CH]1CCCC2OC(C(Cl)(Cl)Cl)OC21 (stereo unspecified)
T/C (dose: 3.13 mg/kg/injection, schedule: Q01DX001 (ip), vehicle: saline with Tween-80): 113 % of control
T/C (dose: 6.25 mg/kg/injection, schedule: Q01DX001 (ip), vehicle: saline with Tween-80): 97 % of control
T/C (dose: 12.5 mg/kg/injection, schedule: Q01DX001 (ip), vehicle: saline with Tween-80): 94 % of control

CSc1ccc(OC(=O)Nc2ccc(Cl)c(Cl)c2)c(C)c1
T/C (dose: 50.0 mg/kg/injection, schedule: Q01DX009 (ip), vehicle: saline + alcohol): 87 % of control
T/C (dose: 100.0 mg/kg/injection, schedule: Q01DX009 (ip), vehicle: saline + alcohol): 87 % of control
T/C (dose: 200.0 mg/kg/injection, schedule: Q01DX009 (ip), vehicle: saline + alcohol): 95 % of control

CC1CCC2(OC1)OC1CC3C4CC=C5CC(O)CCC5(C)C4CCC3(C)C1C2C (stereo unspecified)
T/C [16]: 100 % of control
T/C [17]: 89 % of control
T/C (dose: 200.0 mg/kg/injection, schedule: Q01DX005 (ip), vehicle: Klucel (hydroxypropylcellulose) (HPC)): 86 % of control

O=C(O)Cc1ccc2c(c1)Cc1cccnc1O2
T/C [14]: 108 % of control
T/C [15]: 96 % of control
T/C (dose: 200.0 mg/kg/injection, schedule: Q01DX009 (ip), vehicle: Klucel (hydroxypropylcellulose) (HPC)): 119 % of control

c1ccc2c(c1)ccc1cccnc12
T/C [5]: 93 % of control
T/C [6]: 93 % of control
T/C [7]: 102 % of control

Cc1cnc(C)[nH]1
T/C [5]: 102 % of control
T/C [6]: 86 % of control
T/C [7]: 102 % of control

Cc1ccccc1N1C(=O)C(=O)C(c2nc3ccccc3s2)C(=O)C1=O
T/C [11]: 99 % of control
T/C [12]: 98 % of control
T/C [13]: 97 % of control

CCCCCCCCCCCCNC(=O)c1ccc[n+](Cc2ccc(Cl)c(Cl)c2)c1
T/C (dose: 3.13 mg/kg/injection, schedule: Q01DX009 (ip), vehicle: saline with Tween-80): 100 % of control
T/C (dose: 6.25 mg/kg/injection, schedule: Q01DX009 (ip), vehicle: saline with Tween-80): 95 % of control
T/C [18]: 100 % of control

CC(=O)OC1C2C=CC1C=C2 (stereo unspecified)
T/C [8]: 104 % of control
T/C [9]: 93 % of control
T/C [10]: 100 % of control

O=C1CC(C2CCCCC2)C(=O)c2cc3cccnc3c(O)c21 (stereo unspecified)
T/C [5]: 101 % of control
T/C [6]: 99 % of control
T/C [7]: 93 % of control

ClCCN(CCCl)c1ccc(N=Nc2ccc(-c3ccccc3)cc2)cc1
T/C (dose: 3.0 mg/kg/injection, schedule: Q01DX001 (ip), vehicle: Klucel (hydroxypropylcellulose) (HPC)): 95 % of control
T/C (dose: 6.0 mg/kg/injection, schedule: Q01DX001 (ip), vehicle: Klucel (hydroxypropylcellulose) (HPC)): 103 % of control
T/C (dose: 12.0 mg/kg/injection, schedule: Q01DX001 (ip), vehicle: Klucel (hydroxypropylcellulose) (HPC)): 93 % of control

C=C(C)C(=O)NC(N)=NC#N
T/C (dose: 60.0 mg/kg/injection, schedule: Q01DX005 (ip), vehicle: Klucel (hydroxypropylcellulose) (HPC)): 122 % of control

NC(N)=N/N=C1/C=C2C/C(=N\N=C(N)N)C=C2C1
T/C [16]: 106 % of control
T/C [17]: 104 % of control

COc1ccc(C(c2cc3c(cc2O)OCO3)N2CCN(C(c3ccc(OC)c(O)c3)c3cc4c(cc3O)OCO4)CC2)cc1O (stereo unspecified)
T/C [11]: 96 % of control
T/C [12]: 101 % of control
T/C [13]: 112 % of control

COc1cc2c(cc1OC)C(CCCCCCCC1NCCc3cc(OC)c(OC)cc31)NCC2 (stereo unspecified)
T/C (dose: 12.5 mg/kg/injection, schedule: Q01DX005 (ip), vehicle: saline): 102 % of control
T/C (dose: 25.0 mg/kg/injection, schedule: Q01DX005 (ip), vehicle: saline): 96 % of control
T/C [19]: 100 % of control and 101 % of control

O=C1C=CC(=CC=C2C=CN(CCCCCCO)C=C2)C=C1
T/C [11]: 105 % of control
T/C [12]: 116 % of control
T/C [13]: 122 % of control

FC(F)(Br)C(F)(Cl)Br (stereo unspecified)
T/C [5]: 101 % of control
T/C [6]: 99 % of control
T/C [7]: 114 % of control

Cn1nncc1NS(=O)(=O)c1ccc([N+](=O)[O-])cc1
T/C [1]: 107 % of control
T/C [2]: 115 % of control
T/C [3]: 98 % of control

COCn1ncnc1C(=O)c1ccccc1
T/C [8]: 97 % of control
T/C [9]: 98 % of control
T/C [10]: 92 % of control

CC(C)(C)C(N)=S=O
T/C [19]: 101 % of control
T/C (dose: 100.0 mg/kg/injection, schedule: Q01DX005 (ip), vehicle: saline): 106 % of control
T/C (dose: 200.0 mg/kg/injection, schedule: Q01DX005 (ip), vehicle: saline): 106 % of control

CSC(=S)NN=C1CCCC1
T/C [18]: 101 % of control
T/C (dose: 25.0 mg/kg/injection, schedule: Q01DX009 (ip), vehicle: saline with Tween-80): 101 % of control

O=S(=O)(NCCSSCCNS(=O)(=O)c1ccccc1)c1ccccc1
T/C (dose: 25.0 mg/kg/injection, schedule: Q01DX009 (ip), vehicle: other): 96 % of control
T/C (dose: 50.0 mg/kg/injection, schedule: Q01DX009 (ip), vehicle: other): 98 % of control and 105 % of control
T/C (dose: 100.0 mg/kg/injection, schedule: Q01DX009 (ip), vehicle: other): 110 % of control
T/C (dose: 200.0 mg/kg/injection, schedule: Q01DX009 (ip), vehicle: other): 103 % of control and 90 % of control

COC1C(/C=C/C(C)=O)OC2OC(C)(C)OC21 (stereo unspecified)
T/C (dose: 25.0 mg/kg/injection, schedule: Q01DX009 (ip), vehicle: saline): 106 % of control
T/C [4]: 107 % of control and 112 % of control

Cc1ccc(-c2ccc(Nc3c4ccccc4nc4ccccc34)cc2)cn1
T/C (dose: 25.0 mg/kg/injection, schedule: Q01DX005 (ip), vehicle: distilled water + Tween-80): 106 % of control
T/C (dose: 50.0 mg/kg/injection, schedule: Q01DX005 (ip), vehicle: distilled water + Tween-80): 117 % of control
T/C (dose: 100.0 mg/kg/injection, schedule: Q01DX005 (ip), vehicle: distilled water + Tween-80): 151 % of control
T/C (dose: 200.0 mg/kg/injection, schedule: Q01DX005 (ip), vehicle: distilled water + Tween-80): 193 % of control
